Experimental data taken from patent US12606829B2, “Compositions for herpesvirus transcriptional feedback circuit disruption and uses thereof” (priority 2018, dated 2026).
Oligonucleotides are written 5' to 3', each unit as a sugar letter and its base; * is a phosphorothioate linkage, no mark a phosphodiester; rarer units and linkages stand in square brackets, end groups in braces. Plain capitals give the bases only. d = 2'-deoxy (DNA)

How the values were obtained:
[1] = system: HSV-1 (17syn+ IE175-YFP); assay: Single-round viral titering of HSV-1 in ARPE-19 cells (TCID50); format: cell-based
Description: (§1) FIG. 7: Feedback circuit disruption interferes with viral replication even at high MOI and limits the evolution of resistance. (a) Flow cytometry of ARPE-19 cells nucleofected with the 28 bp dsDNA that titrates IE86 (C-DOT^C) or scrambled dsDNA sequence (C-DOT^Scram) and infected with a clinically derived CMV (TB40E) encoding an IE86-YFP (MOI=0.1) then analyzed at 2 days post infection (dpi). (b) Flow cytometry of ARPE-19 cells nucleofected with a 29 bp DNA to titrate IE175 (C-DOT^H) or scrambled dsDNA sequence (C-DOT^Scram) and infected with HSV-1 (17syn+strain) encoding an IE175-YFP (MOI=0.1) then analyzed at 2 dpi. (c) Single-round viral titering of CMV in the presence of 100 μM GCV, PBS, or 25 μM C-DOT^C (or C-DOT^Scram) at 4-days post infection under different initial MOIs. (d) Single-round viral titering of HSV-1 in presence of 100 μM ACV or 25 μM C-DOT^H (or C-DOT^Scram) at 4-days post infection under different HSV-1 MOIS. (e) Schematic of the continuous-culture experiment; ARPE-19 cells (+/−C-DOT) were infected with CMV or HSV-1 (0.1 MOI) and at 4-day post infection, supernatant was collected and was used to infect naïve ARPE-19 cells +/−C-DOT until day 60. (f) Continuous culture titers for CMV (TB40E-IE86-YFP) in the presence of C-DOT^C (red) or mock treatment (black). […]

[2] = system: CMV (TB40E-IE86-YFP); assay: Single-round viral titering of CMV in ARPE-19 cells (TCID50); format: cell-based
Description: as §1

[3] = system: MCMV; assay: MCMV replication in NIH 3T3 mouse fibroblast cells (TCID50); format: cell-based, murine CMV; conditions: NIH 3T3, MOI=0.1, 4 days post infection
Method: (§2) FIG. 14: C-DOTs can be engineered to interfere with a broad range of species-specific herpesviruses including drug-resistant strains. (a) Sequence homology for the crs of human CMV, rhesus CMV (RhCMV), and murine CMV (MCMV). Sequence homology and divergence are represented. […] NIH 3T3 mouse fibroblast cells were nucleofected with either 28 bp C-DOT^MCMY, or C-DOT^Scram, or mock nucleofected 24 hours prior to MCMV infection at MOI=0.1. 4 days post infection, virus titers were assayed by TCID50. […] (Upper) Fluorescent micrographs, 4-day post nucleofection, of Telo-RF cells nucleofected with either a 28 bp C-DOT^RhCMV, or a C-DOT^Scram, or mock nucleofected and then infected with RhCMV (RhCMV 68.1 GFP) at MOI=0.1. (Lower) Virus titers assayed by TCID-50 at 4 days post infection. […] MRC-5 cells were nucleofected with C-DOT^C or C-DOT^Scram then infected 24-hour later with either the parent CMV AD169 (control) or GCV^R or FOS^R strains (CMV GDGrK17, CMV GDGrP53, CMV 759rD100-1, CMV PFArD100). Virus titers were assayed by TCID-50 at 4 days post infection.

[4] = system: RhCMV 68.1 GFP; assay: RhCMV replication in Telo-RF cells (TCID-50); format: cell-based, rhesus CMV; conditions: MOI=0.1, 4 days post infection
Method: as §2

[5] = system: CMV (TB40E-IE86-YFP or AD169); assay: C-DOT antiviral effect under high and low cGAS-STING expression (MRC-5, ARPE-19); format: cell-based; conditions: MRC-5 (high) and ARPE-19 (low cGAS-STING activity), 4 days post infection
Method: However, to verify that C-DOT activity is independent of cGAS-STING, C-DOTs were tested under conditions of high and low cGAS-STING expression and observed little difference in C-DOT antiviral effects and no effects for C-DOT^Scram in either setting (FIG. 15b).
Total RNA was extracted from cells and corresponding cDNA was quantified by qPCR using sequence specific primers for TLR9 (see Extended Data Table 1 for sequences). […] ARPE-19 (low cGAS-STING activity) and MRC-5 cells (high cGAS-STING activity) were nucleofected with C-DOTE or mock and infected with TB40E-IE86-YFP or AD169, respectively. Virus titers were assayed by TCID-50 at 4 days post infection. (c)C-DOT^C decreases CMV titers below detection by day 60 in the continuous culture setting. CMV titers from the continuous culture experiment followed out to day 60. ARPE-19 cells (+/−25 μM C-DOT) were infected with CMV (TB40E-IE86-YFP; MOI=0.1). (d) CMV and HSV-1 rapidly acquire resistance to approved antivirals (fomivirsen and acyclovir). Viral titers from the continuous culture experiment in the presence or absence of fomivirsen. Mock- or fomivirsen-nucleofected ARPE-19 cells were infected with CMV (TB40E-IE86-YFP; MOI=0.1); at 4 days post infection, supernatants were transferred to infect new naïve ARPE-19 cells (+/−fomivirsen) and transfers repeated every 4 days until day 44. […]

[6] = system: CMV; assay: Cell-death pathway analysis in the context of CMV infection; format: cell-based
Description: (§3) FIG. 10 provides a cell-death pathway analysis (pharmacological inhibitors). The mechanism of C-DOT-induced cell death (in the context of the virus infection) was identified using three separate approaches: (i) RNAseq: to identify misregulated expression patterns and the cell-death pathways these group into (ii) Antibody staining: for specific cell-death pathway markers (iii) Pharmacological inhibitors: of cell-death pathways to test which mitigate C-DOT-induced death. […] C-DOT alone caused cell death in CMV and HSV-1.

[7] = system: HSV-1; assay: Cell-death pathway analysis in the context of HSV-1 infection; format: cell-based
Description: as §3

Nc1nc2c(ncn2COCCO)c(=O)[nH]1 [ACV, acyclovir]
reduction in viral replication ([1]; HSV-1, MOI=2, 100 μM ACV or 25 μM C-DOT^H, 4 days post infection): 35-70 ×

Nc1nc(O)c2ncn(COC(CO)CO)c2n1 [GCV, ganciclovir]
reduction in viral replication ([2]; MOI=2, 100 μM GCV or 25 μM C-DOT^C, 4 days post infection): 35-70 ×

C-DOT^MCMV: 28 bp dsDNA with murine CMV crs; Fw G*ACAGACCA*GCGTCGG*TACCGTACACG*A (SEQ ID NO: 9) (sense dG*dAdCdAdGdAdCdCdA*dGdCdGdTdCdGdG*dTdAdCdCdGdTdAdCdAdCdG*dA; antisense TCGTGTACGGTACCGACGCTGGTCTGTC; antisense: DNA, backbone not given here)
effect on MCMV replication [3]: interferes with MCMV replication

C-DOT^RhCMV: 28 bp dsDNA with rhesus CMV crs; Fw G*ACAGATCGT*TTAGGGAAC*CGTACACG*A (SEQ ID NO: 8) (sense dG*dAdCdAdGdAdTdCdGdT*dTdTdAdGdGdGdAdAdC*dCdGdTdAdCdAdCdG*dA; antisense TCGTGTACGGTTCCCTAAACGATCTGTC; antisense: DNA, backbone not given here)
effect on RhCMV replication [4]: downregulates RhCMV replication

C-DOT^Scram: scrambled dsDNA sequence, phosphorothioated, negative control; Fw A*TACCGCGTAA*CCAGAGGT*ATATAGGT*C (SEQ ID NO: 40) (sense ATACCGCGTAACCAGAGGTATATAGGTC; antisense GACCTATATACCTCTGGTTACGCGGTAT; phosphorothioate; (1)..(2) A Phosphorothioate bond is present between the nucleotides at positions 1 and 2; (11)..(12) A Phosphorothioate bond is present between the nucleotides at positions 11 and 12; (19)..(20) A Phosphorothioate bond is present between the nucleotides at positions 19 and 20; (27)..(28) A Phosphorothioate bond is present between the nucleotides at positions 27 and 28; (1)..(2) A Phosphorothioate bond is present between the nucleotides at positions 1 and 2.; (9)..(10) A Phosphorothioate bond is present between the nucleotides at positions 9 and 10.; (17)..(18) A …)
antiviral effects [2]: did not exhibit antiviral effects
antiviral effects ([1]; HSV-1): did not exhibit antiviral effects
antiviral effects under high and low cGAS-STING expression [5]: no effects
cell death [6]: minimal cell death
cell death [7]: minimal cell death
